Source: patent publication US20160250213A1, “FORMULATIONS OF AZAINDOLE COMPOUNDS” (priority 2013, published 2016)
Where “and” joins values, the source holds several entries; their conditions need not be identical. Equal values may be shown once. Read-outs that look alike come from different tables or passages of the source.

What was measured:
B/Lee/40 = assay: microbe, parasite or virus in culture; assay type: cell-based; conditions: Influenza B virus, MDCK, read-out: Cell Protection Assay EC50 ± SD
[1] = test system: A/Chelyabinsk/1/2006 (H1N1); assay: microbe, parasite or virus in culture; assay type: cell-based; conditions: Influenza A virus, MDCK, read-out: Cell Protection Assay EC50 ± SD
A/New Jersey/8/76 (H1N1) = assay: microbe, parasite or virus in culture; assay type: cell-based; conditions: Influenza A virus, H1N1, MDCK, read-out: Cell Protection Assay EC50 ± SD
A/Swine/1976/31 (H1N1) = assay: microbe, parasite or virus in culture; assay type: cell-based; conditions: Influenza A virus, H1N1, MDCK, in Sus scrofa, read-out: Cell Protection Assay EC50 ± SD
[2] = test system: influenza A/Wisconsin/67/2005 (H3N2) challenge strain virus; assay type: in vivo, humans (healthy volunteers)
[3] = test system: influenza A/PR/8/34 (5×10^3 TCID50); design: species or system mice; conditions: mouse, in vivo
A/Florida/3/2006 (H1N1) = assay: microbe, parasite or virus in culture; assay type: cell-based; conditions: Influenza A virus, MDCK, read-out: Cell Protection Assay EC50 ± SD
[4] = test system: A/Virginia/ATCC2/2009 (H1N1); assay: microbe, parasite or virus in culture; assay type: cell-based; conditions: Influenza A virus, MDCK, read-out: Cell Protection Assay EC50 ± SD
[5] = test system: influenza A/Wisconsin/67/2005 (H3N2) challenge strain virus; assay type: in vivo, humans (healthy volunteers); remark: listed apart in the source
influenza virus = test system: influenza virus; design: species or system mice; conditions: mouse, in vivo
A/Missouri/3/2006 (H1N1) = assay: microbe, parasite or virus in culture; assay type: cell-based; conditions: Influenza A virus, MDCK, read-out: Cell Protection Assay EC50 ± SD
A/Denver/1/57 (H1N1) = assay: microbe, parasite or virus in culture; assay type: cell-based; conditions: Influenza A virus, MDCK, read-out: Cell Protection Assay EC50 ± SD
A/Georgia/17/2006 (H1N1) = assay: microbe, parasite or virus in culture; assay type: cell-based; conditions: Influenza A virus, MDCK, read-out: Cell Protection Assay EC50 ± SD
A/Hong Kong/8/68 (H3N2) = assay: microbe, parasite or virus in culture; assay type: cell-based; conditions: Influenza A virus, MDCK, read-out: Cell Protection Assay EC50 ± SD
[6] = test system: influenza A/Wisconsin/67/2005 (H3N2) challenge strain virus; assay type: in vivo, humans (healthy volunteers); conditions: for Viral Shedding by Tissue Culture, AUC, median: Days 1-7
A/FM/1/47 (H1N1) = assay: microbe, parasite or virus in culture; assay type: cell-based; conditions: Influenza A virus, MDCK, read-out: Cell Protection Assay EC50 ± SD
influenza A virus = assay type: in vivo, mice; conditions: mouse, in vivo
[7] = test system: A/Swine/Iowa/15/30 (H1N1); assay: microbe, parasite or virus in culture; assay type: cell-based; conditions: Influenza A virus, H1N1, MDCK, in Sus scrofa, read-out: Cell Protection Assay EC50 ± SD
[8] = test system: A/Virginia/ATCC3/2009 (H1N1); assay: microbe, parasite or virus in culture; assay type: cell-based; conditions: Influenza A virus, MDCK, read-out: Cell Protection Assay EC50 ± SD
[9] = test system: A/Equine/2/Miami/63 (H3N8); assay: microbe, parasite or virus in culture; assay type: cell-based; conditions: Influenza A virus, H3N8, MDCK, read-out: Cell Protection Assay EC50 ± SD
[10] = 100 mg QD 5 days, FA set N = 12
[11] = 400 mg QD 5 days, FA set N = 12
[12] = 900 mg Day 1, 600 mg Days 2-5, FA set N = 14
[13] = 1200 mg Day 1, 600 mg Days 2-5, FA set N = 14
[14] = pooled Compound (1) dose groups, FA set N = 52
[15] = 900 mg Day 1, 600 mg Days 2-5, […]
[16] = 1200 mg Day 1, 600 mg Days 2-5, […]
[17] = pooled Compound (1) dose groups, […]

O=C(O)[C@H]1C2CCC(CC2)C1Nc1nc(-c2c[nH]c3ncc(F)cc23)ncc1F (stereo partly drawn) [Compound (1)]
EC50 (B/Lee/40): > 10 nM
EC50 [1]: 0.7 ± 0.49 nM
EC50 (A/New Jersey/8/76 (H1N1)): 0.2 ± 0.096 nM
EC50 (A/Swine/1976/31 (H1N1)): 0.47 ± 0.11 nM
Viral Shedding by qRT-PCR, AUC, median [2, 10]: 6.05 log10 copies/mL*Day
Viral Shedding by qRT-PCR, Duration, median [2, 10]: 0.96 days
Viral Shedding by qRT-PCR, AUC, median [2, 11]: 4.90 log10 copies/mL*Day
Viral Shedding by qRT-PCR, Duration, median [2, 11]: 1.36 days
Viral Shedding by qRT-PCR, AUC, median [2, 12]: 10.65 log10 copies/mL*Day
Viral Shedding by qRT-PCR, Duration, median [2, 12]: 2.39 days
Viral Shedding by qRT-PCR, AUC, median [2, 13]: 0.45 log10 copies/mL*Day
Viral Shedding by qRT-PCR, Duration, median [2, 13]: 0.00 days
Viral Shedding by qRT-PCR, AUC, median [2, 14]: 3.45 log10 copies/mL*Day
Viral Shedding by qRT-PCR, Duration, median [2, 14]: 0.71 days
Survival Rate ([3]; 0.1 mg/kg): 12.5
Survival Rate ([3]; 0.3 mg/kg): 44.4
Survival Rate ([3]; 1 mg/kg): 100
EC50 (A/Florida/3/2006 (H1N1)): 0.92 ± 1.5 nM
EC50 [4]: 1.9 ± 3 nM
Serology, Sero-conversion (%) [5, 15]: (68%)
Serology, Sero-conversion, n/N [5, 15]: 13/19
Serology, Sero-conversion (%) [5, 16]: (67%)
Serology, Sero-conversion, n/N [5, 16]: 12/18
Serology, Sero-conversion, n/N ([5]; in vivo): 11/16 and 9/19
Serology, Sero-conversion (%) [5, 17]: (63%)
Serology, Sero-conversion, n/N [5, 17]: 45/72
half maximal reduction in lung titers (influenza virus): 2-3 log
EC50 (A/Missouri/3/2006 (H1N1)): 0.21 ± 0.06 nM
EC50 (A/Denver/1/57 (H1N1)): 0.42 ± 0.19 nM
EC50 (A/Georgia/17/2006 (H1N1)): 0.13 ± 0.048 nM
EC50 (A/Hong Kong/8/68 (H3N2)): 0.6 ± 0.11 nM
Viral Shedding by Tissue Culture, Duration, median [6, 10]: 0.96 days
Viral Shedding by Tissue Culture, Peak, mean [6, 10]: 2.09 log10 TCID50/mL
Viral Shedding by Tissue Culture, AUC, median [6, 10]: 1.25 log10 TCID50 mL*Day
Viral Shedding by Tissue Culture, Duration, median [6, 11]: 1.60 days
Viral Shedding by Tissue Culture, Peak, mean [6, 11]: 1.73 log10 TCID50/mL
Viral Shedding by Tissue Culture, AUC, median [6, 11]: 0.70 log10 TCID50 mL*Day
Viral Shedding by Tissue Culture, Duration, median [6, 12]: 2.71 days
Viral Shedding by Tissue Culture, Peak, mean [6, 12]: 2.68 log10 TCID50/mL
Viral Shedding by Tissue Culture, AUC, median [6, 12]: 3.20 log10 TCID50 mL*Day
Viral Shedding by Tissue Culture, Duration, median [6, 13]: 0.00 days
Viral Shedding by Tissue Culture, Peak, mean [6, 13]: 1.00 log10 TCID50/mL
Viral Shedding by Tissue Culture, AUC, median [6, 13]: 0.35 log10 TCID50 mL*Day
Viral Shedding by Tissue Culture, Duration, median [6, 14]: 0.71 days
Viral Shedding by Tissue Culture, Peak, mean [6, 14]: 1.87 log10 TCID50/mL
Viral Shedding by Tissue Culture, AUC, median [6, 14]: 0.65 log10 TCID50 mL*Day
EC50 (A/FM/1/47 (H1N1)): 0.57 ± 0.036 nM
survival (influenza A virus): 2/8
EC50 [7]: 0.65 ± 0.082 nM
EC50 [8]: 1.9 ± 3.2 nM
EC50 [9]: 0.5 ± 0.065 nM
